# Assay results from US20170035847A1, “COMPOSITIONS AND METHODS FOR TREATING INFLAMMATION-ASSOCIATED DISORDERS OF THE GASTROINTESTINAL TRACT” (TherapyX, Inc., priority 2015, published 2017).
# Tests used:
# in vivo = details: rat, iv
# Protocol: In addition to the studies discussed above a bioavailability and pharmacokinetic study of TGFβ and ATRA was conducted following a single oral administration of PIN®-encapsulated TGFβ and ATRA in male rats, when compared to intravenous administration.
# [1] = test system: DSS-induced colitis in C57Black6 mice; assay: Dextran sodium sulphate-induced colitis; format: in vivo, mouse
# From the text: Animals: Mice 6-8-weeks old (C57Black6 mice [males: n=6; females: n=6; 12 per group]) were purchased from Harlan Nossan, San Pietro al Natisone, Udine, Italy, and housed in a vivarium under pathogen-free conditions at the Department of Biomedical Sciences in the School of Medicine at the University of Catania [Catania, Italy]. The mice were kept under standard laboratory conditions with free access to food and water. They were allowed to adapt for 1 week before starting the study. The care and use of laboratory animals was in accordance with a University of Catania IACUC-approved animal use protocol.
# Colitis was induced with 3% dextran sodium sulphate [50 kDa; Sigma-Aldrich] in drinking water for 4 days. The first treatment was given 24 h before induction of colitis [Day −1] and continued every other day for 6 days.
# Disease score, SAA levels and histological analysis were performed as above.
# To more broadly test the ability of oral TGFβ/ATRA-loaded microspheres to ameliorate IBD, a second model, the DSS-induced colitis model, was employed. Acute colitis was induced in C57Black6 mice [equal numbers of males and females, […]] with 3% DSS[50 kDa] in drinking water for 4 days. […] Mice were monitored daily for overall disease score and weight loss. At the end of 7 days, animals were sacrificed, sera taken and colons harvested, weighed, and measured on Day 7 [24 h after final treatment]. […] SAA levels, colon weight-to-length ratios, and histology scores determined. […] Mice were sacrificed 7 days after first treatment and levels of SAA determined [FIG. 10C]. […] The colons of sacrificed mice were also analyzed for colon weight-to-length ratio [FIG. 10D]. […] Next, ascending, transverse, and descending colon from naïve C57Black6 [no disease], untreated, TGFβ/ATRA-treated, and control [fed blank particles] mice were fixed in 10% formalin, embedded in paraffin, sectioned [5 μm] and stained with H & E. Five randomly-selected sections from each mouse were scored [Table 2] for disease severity. […]
molecule,measurement,setting,value
"CC1=C(/C=C/C(C)=C/C=C/C(C)=C/C(=O)O)C(C)(C)CCC1 [ATRA, all-trans retinoic acid]",AUC,"in vivo; male, 1.6 mg/kg",3500 ng·h/mL
same,half-life,"in vivo; male, 1.6 mg/kg",34 min
O=C(O)c1cc(/N=N/c2ccc(S(=O)(=O)Nc3ccccn3)cc2)ccc1O [sulphasalazine],"SAA levels, difference to no treatment","[1]; Day 7, TGFβ/ATRA 10 and 20 μg, sulphasalazine 50 mg/kg daily",significant
same,colon weight-to-length ratio,"[1]; Day 7, control groups almost 40 mg/cm, p<0.01",35 mg/cm
same,weight loss,"[1]; TGFβ/ATRA 10 and 20 μg every other day, sulphasalazine 50 mg/kg daily oral for 7 days",neither sulphasalazine nor TGFβ/ATRA treatment was able to reduce weight loss
"TGFβ: soluble unencapsulated protein, transforming growth factor β; human recombinant TGFβ (Peprotech)",Area under the curve [AUC],in vivo; 0.04 mg/kg,10 ng·h/mL
same,t1/2,in vivo; 0.04 mg/kg,5 min
